Laboratory results taken from US12162893B2 (Erasca, Inc., priority 2020, dated 2024).

Molecular target: T1, mutant G12C K-RAS (Homo sapiens, UniProt P01116, G12C)
T1 construct: made in house; host or cells: E. coli BL21
Experiment: covalent adduct formation (CAF) with mutant G12C K-RAS
Type: binding
Parameters: CAF: unit not given here
Details: for % CAF @ 10 μM,1 h: Table 6
Method: Embodiments disclosed herein are further illustrated by the following examples in Tables 1-4 and the Examples hereinbelow. The Tables indicate the compound number, structure, the observed mass spectral molecular weight peak, and covalent adduct formation (CAF) with a mutant G12C K-RAS after 60 minutes at a concentration of 10 micromolar.

## C=CC(=O)N1CCN(c2nc(=O)n3c4c(c(-c5ccc(F)cc5F)c(Cl)cc24)OCC3)[C@@H](C)C1 [Example 275, 7-((S)-4-acryloyl-2-methylpiperazin-1-yl)-9 chloro-10-(2,4-difluorophenyl)-2,3-dihydro-5H-[1,4]oxazino[2,3,4-ij]quinazolin-5-one]
1 h
  % CAF @ 10 μM,1 h: 89.6%

## C=CC(=O)N1C[C@H](C)N(c2nc(=O)n3c4c(c(-c5ccc(F)cc5F)c(Cl)cc24)OC[C@@H]3CN2C[C@H]3CC[C@@H](C2)N3C)C[C@H]1C [Example 286, (3S)-7-((2S,5R)-4-acryloyl-2,5-dimethylpiperazin-1-yl)-9-chloro-10-(2,4-difluorophenyl)-3-(((1R,5S)-8-methyl-3,8-diazabicyclo[3.2.1]octan-3-yl)methyl)-2H-[1,4]oxazino[2,3,4-ij]quinazolin-5(3H)-one]
1 h
  % CAF @ 10 μM,1 h: 91.6%

## C=CC(=O)N1C[C@H](C)N(c2nc(=O)n3c4c(c(-c5c(C)ccc6[nH]ncc56)c(Cl)cc24)OC[C@H]3Cn2cccn2)C[C@H]1C (atropisomer, axis not shown) [Example 320, (3R,10R)-3-((1H-pyrazol-1-yl)methyl)-7-((2S,5R)-4-acryloyl-2,5-dimethylpiperazin-1-yl)-9-chloro-10-(5-methyl-1H-indazol-4-yl)-2,3-dihydro-5H-[1,4]oxazino[2,3,4-ij]quinazolin-5-one]
1 h
  % CAF @ 10 μM,1 h: 94.2%

## C=CC(=O)N1C[C@H](C)N(c2nc(=O)n3c4c(c(-c5ccc(F)cc5F)c(Cl)cc24)OC[C@H]3CC2CCN(C)CC2)C[C@H]1C [Example 288, (3R)-7-((2S,5R)-4-acryloyl-2,5-dimethylpiperazin-1-yl)-9-chloro-10-(2,4-difluorophenyl)-3-((1-methylpiperidin-4-yl)methyl)-2H-[1,4]oxazino[2,3,4-ij]quinazolin-5(3H)-one]
1 h
  % CAF @ 10 μM,1 h: 95.9%

## C=CC(=O)N1CCN(c2c(C#N)c(=O)n3c4c(c(-c5c(O)cccc5F)c(Cl)cc24)OCC3)[C@@H](C)C1 [Example 39, (S)-7-((S)-4-acryloyl-2-methylpiperazin-1-yl)-9-chloro-10-(2-fluoro-6-hydroxyphenyl)-5-oxo-3,5-dihydro-2H-[1,4]oxazino[2,3,4-ij]quinoline-6-carbonitrile]
Table 3, Pyridone Core-Morpholine Unsubstituted, after 60 minutes at 10 micromolar
  CAF: 0

## C=CC(=O)N1C[C@H](C)N(c2nc(=O)n3c4c(c(-c5cccc6ccccc56)c(Cl)cc24)OC[C@H]3Cn2ccnc2)C[C@H]1C (atropisomer, axis not shown) [Example 318, (3R,10S)-3-((1H-imidazol-1-yl)methyl)-7-((2S,5R)-4-acryloyl-2,5-dimethylpiperazin-1-yl)-9-chloro-10-(naphthalen-1-yl)-2,3-dihydro-5H-[1,4]oxazino[2,3,4-ij]quinazolin-5-one]
1 h
  % CAF @ 10 μM,1 h: 70.6%

## C=CC(=O)N1C[C@H](C)N(c2nc(=O)n3c4c(c(-c5ccc(F)cc5F)c(Cl)cc24)OC[C@@H]3COC[C@H]2CCCN2C)C[C@H]1C [Example 277, (3S)-7-((2S,5R)-4-acryloyl-2,5-dimethylpiperazin-1-yl)-9-chloro-10-(2,4-difluorophenyl)-3-((((R)-1-methylpyrrolidin-2-yl)methoxy)methyl)-2H-[1,4]oxazino[2,3,4-ij]quinazolin-5(3H)-one]
1 h
  % CAF @ 10 μM,1 h: 76.9%

## C=CC(=O)N1C[C@H](C)N(c2nc(=O)n3c4c(c(-c5ccc(F)cc5F)c(Cl)cc24)OC[C@H]3CCCN2CC(C(=O)NC3CC3)C2)C[C@H]1C [Example 273, 1-(3-((3R)-7-((2S,5R)-4-acryloyl-2,5-dimethylpiperazin-1-yl)-9-chloro-10-(2,4-difluorophenyl)-5-oxo-2,3-dihydro-5H-[1,4]oxazino[2,3,4-ij]quinazolin-3-yl)propyl)-N-cyclopropylazetidine-3-carboxamide]
1 h
  % CAF @ 10 μM,1 h: 71.8%

## C=CC(=O)N1C[C@H](C)N(c2nc(=O)n3c4c(c(-c5c(O)cccc5F)c(Cl)cc24)OC[C@@H]3CN(C)CC(F)(F)F)C[C@H]1C (atropisomer, axis not shown) [Example 239, (3S,10R)-7-((2S,5R)-4-acryloyl-2,5-dimethylpiperazin-1-yl)-9-chloro-10-(2-fluoro-6-hydroxyphenyl)-3-((methyl(2,2,2-trifluoroethyl)amino)methyl)-2H-[1,4]oxazino[2,3,4-ij]quinazolin-5(3H)-one]
1 h
  % CAF @ 10 μM,1 h: 3%

## C=CC(=O)N1CCN(c2nc(=O)n3c4c(c(-c5ccc(F)cc5F)c(Cl)cc24)SCC3)[C@H](CC#N)C1 [Example 117, 2-((2R)-4-acryloyl-1-(9-chloro-10-(2,4-difluorophenyl)-5-oxo-2,3-dihydro-5H-[1,4]thiazino[2,3,4-ij]quinazolin-7-yl)piperazin-2-yl)acetonitrile]
Table 5, 10 uM, 1 h
  % CAF @ 10 uM, 1 h: 75.6%

## C=CC(=O)N1CCN(c2nc(=O)n3c4c(c(-c5c(O)cccc5F)c(Cl)cc24)OC[C@H]3CN2CCC(F)(F)C2)[C@@H](C)C1 (atropisomer, axis not shown) [Example 230, (3R,10S)-7-((S)-4-acryloyl-2-methylpiperazin-1-yl)-9-chloro-3-((3,3-difluoropyrrolidin-1-yl)methyl)-10-(2-fluoro-6-hydroxyphenyl)-2,3-dihydro-5H-[1,4]oxazino[2,3,4-ij]quinazolin-5-one]
1 h
  % CAF @ 10 μM,1 h: 75.9%

## C=CC(=O)N1CCN(c2nc(=O)n3c4c(c(-c5c(O)cccc5F)c(Cl)cc24)OC[C@H]3CN2CCOCC2)[C@@H](C)C1 [Example 198, (3R,10S)-7-((S)-4-acryloyl-2-methylpiperazin-1-yl)-9-chloro-10-(2-fluoro-6-hydroxyphenyl)-3-(morpholinomethyl)-2,3-dihydro-5H-[1,4]oxazino[2,3,4-ij]quinazolin-5-one]
1 h
  % CAF @ 10 μM,1 h: 100%

## C=CC(=O)N1C2CC(=O)CC1CN(c1nc(=O)n3c4c(c(-c5ccc(F)cc5F)c(C(F)(F)F)cc14)OCC3)C2 [Example 337, 7-(9-acryloyl-7-oxo-3,9-diazabicyclo[3.3.1]nonan-3-yl)-10-(2,4-difluorophenyl)-9-(trifluoromethyl)-2,3-dihydro-5H-[1,4]oxazino[2,3,4-ij]quinazolin-5-one]
1 h
  % CAF @ 10 μM,1 h: 95.9%

## C=CC(=O)N1C[C@H](C)N(c2nc(=O)n3c4c(c(-c5ccc(F)cc5F)c(Cl)cc24)OC[C@H]3CCCN(CC(F)(F)F)C2COC2)C[C@H]1C [Example 331, (3R)-7-((2S,5R)-4-acryloyl-2,5-dimethylpiperazin-1-yl)-9-chloro-10-(2,4-difluorophenyl)-3-(3-(oxetan-3-yl(2,2,2-trifluoroethyl)amino)propyl)-2,3-dihydro-5H-[1,4]oxazino[2,3,4-ij]quinazolin-5-one]
1 h
  % CAF @ 10 μM,1 h: 59.2%

## C=CC(=O)N1C[C@H](C)N(c2nc(=O)n3c4c(c(-c5ccc(F)cc5F)c(Cl)cc24)OC[C@@H]3CCCN2CCOCC2)C[C@H]1C [Example 215, (3S)-7-((2S,5R)-4-acryloyl-2,5-dimethylpiperazin-1-yl)-9-chloro-10-(2,4-difluorophenyl)-3-(3-morpholinopropyl)-2,3-dihydro-5H-[1,4]oxazino[2,3,4-ij]quinazolin-5-one]
1 h
  % CAF @ 10 μM,1 h: 91.2%

## C=CC(=O)N1C[C@H](C)N(c2nc(=O)n3c4c(c(-c5ccc(F)cc5F)c(Cl)cc24)OCC3CN(C)C)C[C@H]1C (stereo partly drawn) [Example 35, 7-((2S,5R)-4-acryloyl-2,5-dimethylpiperazin-1-yl)-9-chloro-10-(2,4-difluorophenyl)-3-((dimethylamino)methyl)-2H-[1,4]oxazino[2,3,4-ij]quinazolin-5(3H)-one]
Table 2, Pyrimidone Core-Morpholine Substituted, after 60 minutes at 10 micromolar
  % CAF (60 min): 84.6%

## C=CC(=O)N1C[C@H](C)N(c2nc(=O)n3c4c(c(-c5ccc(F)cc5F)c(Cl)cc24)OC[C@H]3CN(C(=O)[C@@H]2CCCN2C)C2CC2)C[C@H]1C [Example 307, (2S)-N-(((3R)-7-((2S,5R)-4-acryloyl-2,5-dimethylpiperazin-1-yl)-9-chloro-10-(2,4-difluorophenyl)-5-oxo-3,5-dihydro-2H-[1,4]oxazino[2,3,4-ij]quinazolin-3-yl)methyl)-N-cyclopropyl-1-methylpyrrolidine-2-carboxamide]
1 h
  % CAF @ 10 μM,1 h: 51.1%

## C=CC(=O)N1C[C@H](C)N(c2nc(=O)n3c4c(c(-c5ccc(F)cc5F)c(Cl)cc24)OC[C@H]3CCN2CCOCC2)C[C@H]1C [Example 213, (3R)-7-((2S,5R)-4-acryloyl-2,5-dimethylpiperazin-1-yl)-9-chloro-10-(2,4-difluorophenyl)-3-(2-morpholinoethyl)-2H-[1,4]oxazino[2,3,4-ij]quinazolin-5(3H)-one]
1 h
  % CAF @ 10 μM,1 h: 90.6%

## C=CC(=O)N1C[C@H](C)N(c2nc(=O)n3c4c(c(-c5c(O)cccc5F)c(Cl)cc24)OC[C@H]3Cn2cccn2)C[C@H]1C (atropisomer, axis not shown) [Example 246, (3R,10S)-3-((1H-pyrazol-1-yl)methyl)-7-((2S,5R)-4-acryloyl-2,5-dimethylpiperazin-1-yl)-9-chloro-10-(2-fluoro-6-hydroxyphenyl)-2H-[1,4]oxazino[2,3,4-ij]quinazolin-5(3H)-one]
1 h
  % CAF @ 10 μM,1 h: 97.4%

## C=CC(=O)N1CCN(c2nc(=O)n3c4c(c(-c5c(O)cccc5F)c(Cl)cc24)OCC3)CC1 [Example 5, (S)-7-(4-acryloylpiperazin-1-yl)-9-chloro-10-(2-fluoro-6-hydroxyphenyl)-2H-[1,4]oxazino[2,3,4-ij]quinazolin-5(3H)-one]
Table 1, Pyrimidone Core-Morpholine Unsubstituted, after 60 minutes at 10 micromolar
  % CAF (60 min): 87.6%

## C=CC(=O)N1C[C@H](C)N(c2nc(=O)n3c4c(c(-c5ccc(F)cc5F)c(Cl)cc24)OC[C@H]3CCCN2C[C@@H]3C[C@H]2CO3)C[C@H]1C [Example 270, (3R)-3-(3-((1S,4S)-2-oxa-5-azabicyclo[2.2.1]heptan-5-yl)propyl)-7-((2S,5R)-4-acryloyl-2,5-dimethylpiperazin-1-yl)-9-chloro-10-(2,4-difluorophenyl)-2H-[1,4]oxazino[2,3,4-ij]quinazolin-5(3H)-one]
1 h
  % CAF @ 10 μM,1 h: 96.4%
